Results from patent publication US20090123907A1 (priority 2004, published 2009).

Columns and labels:
plasma proteins [1] = test: Protein resistance to vortexing; conditions: for Alk. Phos / LDH / SGOT / SGPT / fIX / fV / fVIII / fibrinogen: plasma, Na citrate 0.4%, lysine citrate 2.0%; for Alkaline phosphatase, % of its initial value / LDH, % of initial value / SGOT, % of initial value / SGPT, % of initial value / factor IX, % of initial value / factor V, % of initial value / factor VIII, % of initial value / fibrinogen, % of initial value: sodium citrate 0.4%, lysine citrate 2%
Experimental: As the basic anticoagulant experiments were carried out, additional advantages to the new anticoagulation system became apparent. The inventor has long believed that the effects of citrate on proteins, and in particular plasma proteins, goes beyond mere chelation of calcium. As mentioned above, citrate complexes with or otherwise potentiates the precipitation of plasma proteins. […] Soluble protein can be denatured by vigorous mixing and the resulting exposure to the air-water interfaces present in foam. […]. Two ten ml tubes of each plasma were prepared and held at room temperature for thirty minutes. A “pretreatment” sample (Pre) was removed from each tube and set aside. Then the tubes were subjected to vigorous mixing using a vortex (rotary) mixer for 30 min.
[…]. […] […].

plasma proteins [2] = test: Protein resistance to room temperature aging; conditions: Na citrate 0.4%, lysine citrate 2%
From the text: […]. In many cases heat treatments have been used to reduce or eliminated infectious agents from blood products. A problem with such an approach has been heat induced changes in the antigenicity of certain blood components. […]. A continuation of this experiment was set up to check also long term room temperature stability. It is generally believed that resistance to heat is an indicator of room temperature stability. That is the justification for estimating long term stability of products by using “accelerated” stability tests based on storage at an elevated temperature. In the presented experiment it is important to note that different plasma sample were used for the two different anticoagulants because a single sample was not large enough to provide sufficient volume for all of the tests over the life of the extended experiment.
It was anticipated that protection against damage due to elevated temperature would also provide greater stability at room temperature. It will be appreciated that the need to rapidly freeze plasma to ensure stability and the need to freeze or refrigerate plasma for transport greatly complicates the use of plasma under situations of war or emergency or in developing countries where refrigeration may not be readily available. […] […]. […] […]. Although great effort is taken to ensure sterility of the plasma, any blood product procured by means of venipuncture may become contaminated by skin bacteria. […] […]. Those proteins that do lose activity decrease only slightly as compared to much more dramatic decreases in sodium citrate storage.

platelets = test: Platelets in 2% lysine citrate and CPD, 15 days storage; type: cell-based; conditions: PRP, CPD + 2% lysine citrate, room temperature
From the text: The second experiment was similar to the first platelet experiment reported above with the primary difference that the primary anticoagulant was CPD (citrate-phosphate-dextrose). This anticoagulant contains approximately 0.4% citrate by weight but also contains dextrose as an energy source for the platelets (and also, unfortunately, for any bacteria that may be present). […] It was believed that the CPD might further stabilize the platelets by providing an energy source.

[3] = after vortexing, 2% sodium citrate (similar experiment, data not shown)

## NCCCC[C@H](N)C(=O)O.O=C(O)CC(O)(CC(=O)O)C(=O)O [Lysine Citrate, lysine citrate]
Plasma proteins [1]; Post 30 min vortexing
  Alk. Phos: 22 IU/.L
  LDH: 80 IU/L
  SGOT: 11 IU/L
  SGPT: 24 IU/L
  fIX: 76%
  fV: 55%
  fVIII: 57%
  fibrinogen: 198 mg/dL
Plasma proteins [1]; Pre vortexing
  Alk. Phos: 25 IU/.L
  LDH: 99 IU/L
  SGOT: 12 IU/L
  SGPT: 26 IU/L
  fIX: 98%
  fV: 95%
  fVIII: 97%
  fibrinogen: 247 mg/dL
Plasma proteins [1]; after vortexing
  Alkaline phosphatase, % of its initial value: 88%
  LDH, % of initial value: 80%
  SGOT, % of initial value: 91.6%
  SGPT, % of initial value: 92%
  factor IX, % of initial value: 77.6%
  factor V, % of initial value: 58%
  factor VIII, % of initial value: 59%
  fibrinogen, % of initial value: 80%
Plasma proteins [2]; 0 days at room temperature
  Alk. Phos: 23 IU/.L
  LDH: 97 IU/L
  SGOT: 10 IU/L
  SGPT: 20 IU/L
  fIX: 99%
  fV: 97%
  fVIII: 102%
  fibrinogen: 198 mg/dL
Plasma proteins [2]; 7 days at room temperature
  Alk. Phos: 23 IU/.L
  LDH: 97 IU/L
  SGOT: 10 IU/L
  SGPT: 20 IU/L
  fIX: 100%
  fV: 95%
  fVIII: 100%
  fibrinogen: 198 mg/dL
Plasma proteins [2]; 14 days at room temperature
  Alk. Phos: 22 IU/.L
  LDH: 98 IU/L
  SGOT: 11 IU/L
  SGPT: 20 IU/L
  fIX: 95%
  fV: 92%
  fVIII: 97%
  fibrinogen: 196 mg/dL
Plasma proteins [2]; 21 days at room temperature
  Alk. Phos: 23 IU/.L
  LDH: 98 IU/L
  SGOT: 10 IU/L
  SGPT: 18 IU/L
  fIX: 89%
  fV: 88%
  fVIII: 96%
  fibrinogen: 196 mg/dL
platelets; Day 1
  Clotting time: 29 s
  Count (platelets): 2.41 × 10^5 per μl
  LDH: 98 IU/L
platelets; Day 2
  Clotting time: 30 s
  Count (platelets): 2.41 × 10^5 per μl
  LDH: 96 IU/L
platelets; Day 3
  Clotting time: 30 s
  Count (platelets): 2.40 × 10^5 per μl
  LDH: 97 IU/L
platelets; Day 4
  Clotting time: 31 s
  Count (platelets): 2.40 × 10^5 per μl
  LDH: 98 IU/L
platelets; Day 5
  Clotting time: 32 s
  Count (platelets): 2.38 × 10^5 per μl
  LDH: 99 IU/L
platelets; Day 6
  Clotting time: 30 s
  Count (platelets): 2.41 × 10^5 per μl
  LDH: 101 IU/L
platelets; Day 7
  Clotting time: 28 s
  Count (platelets): 2.42 × 10^5 per μl
  LDH: 100 IU/L
platelets; Day 8
  Clotting time: 28 s
  Count (platelets): 2.40 × 10^5 per μl
  LDH: 102 IU/L
platelets; Day 9
  Clotting time: 31 s
  Count (platelets): 2.38 × 10^5 per μl
  LDH: 100 IU/L
platelets; Day 10
  Clotting time: 30 s
  Count (platelets): 2.38 × 10^5 per μl
  LDH: 98 IU/L
platelets; Day 11
  Clotting time: 29 s
  Count (platelets): 2.35 × 10^5 per μl
  LDH: 103 IU/L
platelets; Day 12
  Clotting time: 30 s
  Count (platelets): 2.34 × 10^5 per μl
  LDH: 101 IU/L
platelets; Day 13
  Clotting time: 30 s
  Count (platelets): 2.34 × 10^5 per μl
  LDH: 103 IU/L
platelets; Day 14
  Clotting time: 31 s
  Count (platelets): 2.35 × 10^5 per μl
  LDH: 105 IU/L
platelets; Day 15
  Clotting time: 26 s
  Count (platelets): 2.28 × 10^5 per μl
  LDH: 122 IU/L

## O=C([O-])CC(O)(CC(=O)[O-])C(=O)[O-].[Na+].[Na+].[Na+] [Na Citrate, sodium citrate, reference compound]
Plasma proteins [1]; Post 30 min vortexing
  Alk. Phos: 15 IU/.L
  LDH: 33 IU/L
  SGOT: 1 IU/L
  SGPT: 1 IU/L
  fIX: 44%
  fV: 21%
  fVIII: 32%
  fibrinogen: 106 mg/dL
Plasma proteins [1]; Pre vortexing
  Alk. Phos: 27 IU/.L
  LDH: 100 IU/L
  SGOT: 15 IU/L
  SGPT: 29 IU/L
  fIX: 103%
  fV: 98%
  fVIII: 102%
  fibrinogen: 258 mg/dL
Plasma proteins [1]; [3]
  LDH, % of the initial value: 48%
  SGOT, % of the initial value: 33%
  SGPT, % of the initial value: 32%
  alkaline phosphatase, % of the initial value: 80%
  factor IX, % of the initial value: 62%
  factor V, % of the initial value: 52%
  factor Viii, % of the initial value: 57%
  fibrinogen, % of the initial value: 69%
Plasma proteins [1]; after vortexing
  Alkaline phosphatase, % of its initial value: 55%
  LDH, % of initial value: 33%
  SGOT, % of initial value: 6.6%
  SGPT, % of initial value: 3.4%
  factor IX, % of initial value: 43%
  factor V, % of initial value: 21%
  factor VIII, % of initial value: 31%
  fibrinogen, % of initial value: 4%
Plasma proteins [2]; 0 days at room temperature
  Alk. Phos: 30 IU/.L
  LDH: 110 IU/L
  SGOT: 18 IU/L
  SGPT: 32 IU/L
  fIX: 104%
  fV: 98%
  fVIII: 109%
  fibrinogen: 206 mg/dL
Plasma proteins [2]; 7 days at room temperature
  Alk. Phos: 29 IU/.L
  LDH: 111 IU/L
  SGOT: 18 IU/L
  SGPT: 30 IU/L
  fIX: 107%
  fV: 102%
  fVIII: 100%
  fibrinogen: 181 mg/dL
Plasma proteins [2]; 14 days at room temperature
  Alk. Phos: 31 IU/.L
  LDH: 108 IU/L
  SGOT: 15 IU/L
  SGPT: 26 IU/L
  fIX: 93%
  fV: 102%
  fVIII: 92%
  fibrinogen: 173 mg/dL
Plasma proteins [2]; 21 days at room temperature
  Alk. Phos: 28 IU/.L
  LDH: 103 IU/L
  SGOT: 12 IU/L
  SGPT: 20 IU/L
  fIX: 56%
  fV: 44%
  fVIII: 78%
  fibrinogen: 167 mg/dL
